Format in all cases: cell-based
Experiment [1] deals with T1, H723R-pendrin (Homo sapiens, UniProt O43511, H723R).
T1 construct: expressed in transfected cells; host or cells: PANC-1
T1 sequence (O43511 1-780 H723R): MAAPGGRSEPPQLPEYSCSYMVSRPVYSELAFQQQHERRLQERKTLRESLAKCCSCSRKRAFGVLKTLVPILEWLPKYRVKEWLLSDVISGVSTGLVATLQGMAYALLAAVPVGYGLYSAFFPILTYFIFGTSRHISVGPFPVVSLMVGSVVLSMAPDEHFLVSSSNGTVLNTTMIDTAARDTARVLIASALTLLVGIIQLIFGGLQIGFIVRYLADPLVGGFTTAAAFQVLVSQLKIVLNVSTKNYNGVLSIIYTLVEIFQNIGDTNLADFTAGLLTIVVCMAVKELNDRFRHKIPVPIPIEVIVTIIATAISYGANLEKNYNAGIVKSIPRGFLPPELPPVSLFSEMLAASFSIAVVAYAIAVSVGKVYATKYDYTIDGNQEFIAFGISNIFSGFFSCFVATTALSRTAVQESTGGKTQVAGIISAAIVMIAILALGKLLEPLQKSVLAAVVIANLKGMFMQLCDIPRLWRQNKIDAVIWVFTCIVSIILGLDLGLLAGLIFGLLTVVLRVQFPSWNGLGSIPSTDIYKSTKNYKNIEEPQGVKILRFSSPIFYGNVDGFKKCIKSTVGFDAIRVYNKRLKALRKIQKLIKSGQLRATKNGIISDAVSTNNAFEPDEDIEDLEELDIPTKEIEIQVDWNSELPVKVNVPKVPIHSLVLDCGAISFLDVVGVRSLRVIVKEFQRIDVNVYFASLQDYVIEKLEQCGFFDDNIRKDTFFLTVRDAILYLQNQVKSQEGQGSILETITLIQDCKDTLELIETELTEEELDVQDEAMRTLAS
In words: YFP fluorescence quenching assay (Cl−/I− exchange activity of pendrin). Conditions: PANC-1 cells stably expressing human H723R-pendrin and YFP-F46L/H148Q/I152L; compound incubation 20-24 hours; iodide influx. From the text:
Halide sensor YFP F46L/H148Q/I152L is quenched by halide ion like Iodide. When such YFP is expressed in a cell, it expresses in the cytoplasm.
To measure H723R-PDS activity, PANC-1 cells were stably transfected with halide sensors YFP-F46L/H148Q/I152L and H723R-PDS which has problems with membrane trafficking due to misfolding.
If the cell-treated drug is a corrector for H723R-PDS, H723R-PDS will translocate normally to the plasma membrane.
At this time, when treated with a high-concentration iodide solution outside the cell, iodide enters the cell due to the Cl−/I− exchange activity of pendrin, and the fluorescence of the halide sensor YFP decreases.
PANC-1 cells were cultured in Dulbecco's Modified Eagle's Medium with 10% fetal bovine serum, 2 mM glutamine, 100 units/ml penicillin and 100 µg/ml streptomycin. For high-throughput screening, PANC-1 cells were stably transfected with human H723R-pendrin and halide sensor YFP-F46L/H148Q/I152L.
PANC-1 cells expressing human H723R-pendrin and YFP-F46L/H148Q/I152L were plated in 96-well microplates at a density of 2×10^4 cells per well and grown for 20-24 hours at 37° C. (90% humidity 5% CO2). Then these cells were treated with 50 μl growth medium containing test compounds and incubated for 20-24 hours. For YFP quenching assay, each well of the 96-well plate was washed 2 times with 200 μl of PBS, and it was filled with 50 μl of HEPES-buffered solution (140 mM NaCl, 5 mM KCl, 1 mM MgCl2, 1 mM CaCl2, 10 mM D-glucose, 10 mM HEPES; pH 7.4 with NaOH). After 10 minutes of incubation at 37° C., the 96-well plate was moved on the FLUOstar Omega Microplate Reader (BMG Labtech, Ortenberg, Germany) for a fluorescence assay. Each well was assayed individually for H723R-pendrin mediated I^− influx by recording fluorescence (495±15 nm excitation, 520±20 nm emission) every 400 ms for 1 second (baseline). Then, 50 μL of NaI-substituted HEPES-buffered solution (NaI replacing NaCl) was added using a liquid injector at 1 second and YFP fluorescence was recorded every 400 ms for 10 seconds. The initial iodide influx rate was determined from the initial slope of fluorescence by nonlinear regression, after the infusion of iodide.
It is indicated as EC50 with the following key: A=EC50 less than 5 uM; B=EC50 greater than 5 uM, but less than 10 uM; C=EC50 greater than 10 uM.

The target in experiment [2] is T1, H723R-pendrin. In words: PTI assay (Cl−/HCO3− exchange activity). Conditions: PANC-1 cells, BCECF pHi. The procedure: Measurements of intracellular pH (pHi) in PANC-1 cells were performed with the pH-sensitive fluorescent probe 2′,7′-bis-(2-carboxyethyl)-5-(and-6)-carboxyfluorescein (BCECF) according to previously reported protocols. Briefly, cells were incubated with 2 μM BCECF acetoxy-methylester for 5 min and then perfused with a HCO3^−-buffered solution [containing 120 mM NaCl, 5 mM KCl, 1 mM MgCl2, 1 mM CaCl2, 10 mM d-glucose, 5 mM Hepes, and 25 mM NaHCO3 (pH 7.4)].
BCECF fluorescence was recorded at excitation wavelengths of 490 and 440 nm at a resolution of 2/s on a recording setup. The Cl^−/HCO3^− exchange activities were estimated from the initial rate of pHi increase as a result of Cl^− removal from the HCO3^−-containing buffer (25 mM HCO3^− with 5% CO2).
The pHi calibration was performed with standard pH solutions containing 150 mM KCl and 5 μM nigericin. The intrinsic buffer capacity (βi) was calculated by measuring ΔpHi in response to 5 to 40 mM NH4Cl pulses in Na^+-free solutions. Because the βi values were not substantially affected by transfection with the plasmids encoding for WT-pendrin or H723R-pendrin, the Cl^−/HCO3^− exchange activities were expressed as ΔpH unit/min without compensating for the buffer capacity.
It is indicated as exchange % with the following key: A=Exchange % greater than 50%; B=Exchange % less than 50%.

In another experiment the target is T2, H723R-hPDS (Homo sapiens, UniProt O43511, H723R).
T2 construct: expressed in transfected cells; host or cells: Panc1 (Panc1^hPDS-H723R)
T2 sequence (O43511 1-780 H723R): T1 sequence (O43511 1-780 H723R)
In words: Surface biotinylation assay. Conditions: Panc1 hPDS-H723R cells, 24 h treatment. An excerpt:
Surface biotinylation is a commonly used technique to specifically isolate plasma membrane proteins using a modified biotin in a form that is easy to bind with proteins. Sulfo-NHS-SS-biotin is a generally used reagent in surface biotinylation due to its impermeability and water solubility. In cool conditions, the extracellular domain of membrane proteins is covalently binding with the reactive biotin ester. These proteins are separated from the whole lysate via a biotin-streptavidin response. In this process, we can validate the increasing rate of the expression level of mutant pendrin in the plasma membrane.
Panc1^parental, Panc1^hPDS-WT and Panc1^hPDS-H723R cells were cultured in high glucose DMEM medium supplemented with 10% fetal bovine serum and 1% antibiotics. 24 hours after seeding in 6-well plates, cells were treated as indicated for 24 h. Cells were washed in PBS and incubated on ice with 0.3 mg/ml biotin in PBS. After 35 min, 1% BSA in PBS, D.W mixture (1:1) was added to cells, and cells were incubated for 10 min. Cells were washed and lysed in lysis buffer. The lysates were sonicated for 20 seconds, and not boiled. After centrifugated, the supernatants were collected and quantified via BCA analysis. The quantified supernatants were added to 10% avidin beads in PBS and incubated overnight at 4° C. After incubation, the below steps were repeated 4 times: i) centrifugation, ii) removing the supernatant, iii) washing with lysis buffer. After the last centrifugation and removing the supernatant, the sample buffer mixed with reducing buffer was added to biotin-avidin mixtures. The elution was accomplished in the 38° C. bioshaker for 40 min and the supernatant was collected. The supernatant was separated by SDS-PAGE and transferred to an Immobilon membrane. After incubation in 5% BSA solution to prevent nonspecific binding, the membrane was incubated with specific antibodies overnight. Then, the membrane was washed with TBST buffer and incubated with HRP-conjugated anti-rabbit or -mouse antibody for 1 hour. The ECL buffer and iBright were used for the visualization of protein bands. The respective protein band intensity was quantified by densitometric analysis using the NIH ImageJ program.
It is indicated as expression % with the following key: A=Expression % greater than 100%; B=Expression % greater than 50%, but less than 100%; C=Expression % less than 50%.

These results are taken from patent US20250340537A1, “PHARMACEUTICALLY ACTIVE COMPOUNDS, COMPOSITIONS, AND METHODS FOR MODULATING PENDRIN” (ARBORMED Co., Ltd., priority 2022, published 2025).

Molecule `NC1=C(c2cncc(-c3ccc(O)c(O)c3)n2)C(=O)CN1CC1CCC1` [Compound 69] displayed an EC50 at H723R-pendrin [1] of less than 5 µM. The entries for the “Cl−/HCO3− exchange, % of WT-hPDS” value on H723R-pendrin [2] (3 uM) and on H723R-pendrin [2] (10 uM) were “B (B=Exchange % less than 50%)” and “A (A=Exchange % greater than 50%)”, respectively.
Consider `NC1=C(c2cncc(-c3ccc(O)c(O)c3)n2)C(=O)CN1CCC1CCCC1` [Compound 46], for which the EC50 on H723R-pendrin [1] is less than 5 µM. Besides, the “Surface expression % of H723R-hPDS relative to WT-hPDS (Glycosylated form pendrin)” value at H723R-hPDS (3 uM) is given as “B (B=Expression % greater than 50%, but less than 100%)”; on H723R-hPDS (10 uM), “A (A=Expression % greater than 100%)”.
Taken in the same sequence, the figures for `NC1=C(c2cncc(-c3ccc(O)c(O)c3)n2)C(=O)CN1C1CCCC1` [Compound 33] were less than 5 µM, “A (A=Expression % greater than 100%)” and “A (A=Expression % greater than 100%)”.
`COc1cc(-c2cncc(C3=C(N)N(c4ccccc4Cl)CC3=O)n2)ccc1O` [Compound 28] registered an EC50 at H723R-pendrin [1] of less than 5 µM. Further, the “Surface expression % of H723R-hPDS relative to WT-hPDS (Glycosylated form pendrin)” value at H723R-hPDS (3 uM) and on H723R-hPDS (10 uM) was “A (A=Expression % greater than 100%)” in each case. Besides, the “Cl−/HCO3− exchange, % of WT-hPDS” value on H723R-pendrin [2] (3 uM) is “B (B=Exchange % less than 50%)”; at H723R-pendrin [2] (10 uM), “A (A=Exchange % greater than 50%)”.
With `COc1ccc(-c2cncc(C3=C(N)N(CC(C)C)CC3=O)n2)cc1OC` [Compound 8], the EC50 at H723R-pendrin [1] was less than 5 µM. Also, the “Surface expression % of H723R-hPDS relative to WT-hPDS (Glycosylated form pendrin)” value at H723R-hPDS (3 uM) is reported as “B (B=Expression % greater than 50%, but less than 100%)”; at H723R-hPDS (10 uM), “A (A=Expression % greater than 100%)”.
`NC1=C(c2cncc(-c3ccc(O)c(O)c3)n2)C(=O)CN1C1CCC(F)(F)C1` (stereo not shown) [Compound 62]: on H723R-pendrin [1], the 50% effective concentration (EC50) is less than 5 µM. For the same molecule, the “Surface expression % of H723R-hPDS relative to WT-hPDS (Glycosylated form pendrin)” value is given as “B (B=Expression % greater than 50%, but less than 100%)” at H723R-hPDS (3 uM) and “A (A=Expression % greater than 100%)” at H723R-hPDS (10 uM).
Turning to `NC1=C(c2cncc(-c3ccc(O)c(O)c3)n2)C(=O)CN1CC1CCCCC1` [Compound 49], at H723R-pendrin [1], the EC50 was less than 5 µM. Moreover, the “Surface expression % of H723R-hPDS relative to WT-hPDS (Glycosylated form pendrin)” value at H723R-hPDS (3 uM) and at H723R-hPDS (10 uM) was “A (A=Expression % greater than 100%)” in each case. For the same molecule, the “Cl−/HCO3− exchange, % of WT-hPDS” value on H723R-pendrin [2] (3 uM) and at H723R-pendrin [2] (10 uM) was “A (A=Exchange % greater than 50%)” in each case.
On to `COc1cc(-c2cncc(C3=C(N)N(CC4CCCC4)CC3=O)n2)ccc1O` [Compound 73], for which the EC50 on H723R-pendrin [1] is less than 5 µM. For the same molecule, the “Cl−/HCO3− exchange, % of WT-hPDS” value at H723R-pendrin [2] (3 uM) and on H723R-pendrin [2] (10 uM) was “A (A=Exchange % greater than 50%)” in each case.
As to `CC(C)CN1CC(=O)C(c2cncc(-c3ccc(O)c(O)c3)n2)=C1N` [Compound 13], at H723R-pendrin [1], the concentration giving a half-maximal response (EC50) was less than 5 µM. In addition, the “Surface expression % of H723R-hPDS relative to WT-hPDS (Glycosylated form pendrin)” value at H723R-hPDS (3 uM) and at H723R-hPDS (10 uM) was “A (A=Expression % greater than 100%)” throughout.

As usually defined, the EC50 is the concentration at which the effect is half-maximal. A low value points to an effect from little substance.
